According to the supplement of paper PMC11851430, “Workflow for E3 Ligase Ligand Validation for PROTAC Development” (ACS Chemical Biology, 2025):

How the values were obtained:
Test in all cases: apparent dissociation constant Kd app (Kinobeads competition, EC50 x correction factor)
Conditions in all cases: lysate: Jurkat cell lysate
LATS1 = LATS1 (UniProt O95835)
SRC = SRC (UniProt P12931)
CSK = CSK (UniProt P41240)
ACVR1 = ACVR1 (UniProt Q04771)
TAOK3 = TAOK3 (UniProt Q9H2K8)
ITK = ITK (UniProt Q08881)
MAP3K11 = MAP3K11 (UniProt Q16584)
PRKD3 = PRKD3 (UniProt O94806)
NEK9 = NEK9 (UniProt Q8TD19)
PHKG2 = PHKG2 (UniProt P15735)
PKN1 = PKN1 (UniProt Q16512)
TAOK2 = TAOK2 (UniProt Q9UL54)
CDK1 = CDK1 (UniProt P06493)
ROCK1 = ROCK1 (UniProt Q13464)
AURKB = AURKB (UniProt Q96GD4)
PRKAA1 = PRKAA1 (UniProt Q13131)
TGFBR1 = TGFBR1 (UniProt P36897)
FGFR1 = FGFR1 (UniProt P11362)
PRKCA = PRKCA (UniProt P17252)
CDC42BPA = CDC42BPA (UniProt Q5VT25)
PAK4 = PAK4 (UniProt O96013)
MAP3K4 = MAP3K4 (UniProt Q9Y6R4)
MAP3K4, sequence (Q9Y6R4 whole entry): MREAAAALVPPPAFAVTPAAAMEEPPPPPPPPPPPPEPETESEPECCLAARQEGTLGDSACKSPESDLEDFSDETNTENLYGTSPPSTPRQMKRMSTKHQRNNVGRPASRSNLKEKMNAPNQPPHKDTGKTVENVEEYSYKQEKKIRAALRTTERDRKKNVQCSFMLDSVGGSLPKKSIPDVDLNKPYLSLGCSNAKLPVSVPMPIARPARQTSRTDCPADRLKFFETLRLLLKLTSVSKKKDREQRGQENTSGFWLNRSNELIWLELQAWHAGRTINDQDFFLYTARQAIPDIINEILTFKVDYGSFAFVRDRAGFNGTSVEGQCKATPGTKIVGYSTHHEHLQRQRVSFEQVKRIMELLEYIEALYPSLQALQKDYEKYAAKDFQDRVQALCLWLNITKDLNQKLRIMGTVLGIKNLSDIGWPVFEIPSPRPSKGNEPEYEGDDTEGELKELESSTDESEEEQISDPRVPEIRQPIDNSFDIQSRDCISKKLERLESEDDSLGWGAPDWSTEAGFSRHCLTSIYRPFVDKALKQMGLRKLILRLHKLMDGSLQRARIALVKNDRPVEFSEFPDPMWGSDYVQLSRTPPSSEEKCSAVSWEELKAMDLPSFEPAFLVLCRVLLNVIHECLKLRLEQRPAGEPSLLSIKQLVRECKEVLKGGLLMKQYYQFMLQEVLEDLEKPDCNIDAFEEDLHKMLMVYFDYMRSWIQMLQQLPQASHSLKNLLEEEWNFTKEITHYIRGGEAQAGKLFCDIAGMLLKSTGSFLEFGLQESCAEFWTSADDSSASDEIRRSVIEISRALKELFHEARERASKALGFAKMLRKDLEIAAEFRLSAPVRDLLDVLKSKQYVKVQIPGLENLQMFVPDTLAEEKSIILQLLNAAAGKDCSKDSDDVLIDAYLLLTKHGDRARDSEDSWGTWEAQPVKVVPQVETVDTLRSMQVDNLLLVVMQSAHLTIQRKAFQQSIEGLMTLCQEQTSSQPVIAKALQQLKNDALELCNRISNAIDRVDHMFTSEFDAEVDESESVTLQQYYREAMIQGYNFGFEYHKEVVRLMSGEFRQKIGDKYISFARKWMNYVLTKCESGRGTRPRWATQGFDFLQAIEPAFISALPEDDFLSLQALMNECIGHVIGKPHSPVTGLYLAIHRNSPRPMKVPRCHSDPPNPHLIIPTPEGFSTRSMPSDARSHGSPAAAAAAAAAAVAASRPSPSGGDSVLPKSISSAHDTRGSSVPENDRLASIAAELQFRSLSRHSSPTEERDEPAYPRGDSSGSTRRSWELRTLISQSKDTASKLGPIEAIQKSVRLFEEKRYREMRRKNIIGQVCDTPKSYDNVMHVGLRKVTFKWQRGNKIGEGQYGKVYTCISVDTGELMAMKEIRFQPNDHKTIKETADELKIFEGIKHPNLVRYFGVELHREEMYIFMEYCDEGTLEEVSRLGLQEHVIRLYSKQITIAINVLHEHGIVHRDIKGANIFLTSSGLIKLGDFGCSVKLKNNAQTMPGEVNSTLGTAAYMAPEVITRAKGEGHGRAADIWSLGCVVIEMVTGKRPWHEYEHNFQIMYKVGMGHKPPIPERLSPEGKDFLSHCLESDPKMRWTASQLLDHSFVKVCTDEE

ACVR1, sequence (Q04771 whole entry): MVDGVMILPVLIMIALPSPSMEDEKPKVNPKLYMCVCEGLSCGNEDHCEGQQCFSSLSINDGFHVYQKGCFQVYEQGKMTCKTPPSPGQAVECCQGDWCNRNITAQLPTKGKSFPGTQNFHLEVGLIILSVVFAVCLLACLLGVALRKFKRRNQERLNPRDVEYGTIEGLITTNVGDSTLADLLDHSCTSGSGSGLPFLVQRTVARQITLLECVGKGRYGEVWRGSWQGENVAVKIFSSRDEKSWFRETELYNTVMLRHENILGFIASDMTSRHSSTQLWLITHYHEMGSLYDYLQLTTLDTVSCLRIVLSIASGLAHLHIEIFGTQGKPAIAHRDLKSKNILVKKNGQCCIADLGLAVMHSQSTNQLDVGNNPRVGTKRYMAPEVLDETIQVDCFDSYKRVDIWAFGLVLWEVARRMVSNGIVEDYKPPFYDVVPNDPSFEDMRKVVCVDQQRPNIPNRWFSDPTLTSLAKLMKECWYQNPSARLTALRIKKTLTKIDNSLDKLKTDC
AURKB, sequence (Q96GD4 whole entry): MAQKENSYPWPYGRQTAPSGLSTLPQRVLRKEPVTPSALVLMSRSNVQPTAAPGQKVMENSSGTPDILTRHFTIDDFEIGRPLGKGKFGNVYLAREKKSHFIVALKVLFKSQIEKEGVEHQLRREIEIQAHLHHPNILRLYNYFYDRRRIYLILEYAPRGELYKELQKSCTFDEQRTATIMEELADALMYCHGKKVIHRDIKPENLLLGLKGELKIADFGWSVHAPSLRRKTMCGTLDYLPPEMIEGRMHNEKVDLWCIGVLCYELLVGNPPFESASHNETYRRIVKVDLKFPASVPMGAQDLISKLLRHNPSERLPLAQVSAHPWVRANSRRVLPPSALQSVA
FGFR1, sequence (P11362 whole entry, looked up): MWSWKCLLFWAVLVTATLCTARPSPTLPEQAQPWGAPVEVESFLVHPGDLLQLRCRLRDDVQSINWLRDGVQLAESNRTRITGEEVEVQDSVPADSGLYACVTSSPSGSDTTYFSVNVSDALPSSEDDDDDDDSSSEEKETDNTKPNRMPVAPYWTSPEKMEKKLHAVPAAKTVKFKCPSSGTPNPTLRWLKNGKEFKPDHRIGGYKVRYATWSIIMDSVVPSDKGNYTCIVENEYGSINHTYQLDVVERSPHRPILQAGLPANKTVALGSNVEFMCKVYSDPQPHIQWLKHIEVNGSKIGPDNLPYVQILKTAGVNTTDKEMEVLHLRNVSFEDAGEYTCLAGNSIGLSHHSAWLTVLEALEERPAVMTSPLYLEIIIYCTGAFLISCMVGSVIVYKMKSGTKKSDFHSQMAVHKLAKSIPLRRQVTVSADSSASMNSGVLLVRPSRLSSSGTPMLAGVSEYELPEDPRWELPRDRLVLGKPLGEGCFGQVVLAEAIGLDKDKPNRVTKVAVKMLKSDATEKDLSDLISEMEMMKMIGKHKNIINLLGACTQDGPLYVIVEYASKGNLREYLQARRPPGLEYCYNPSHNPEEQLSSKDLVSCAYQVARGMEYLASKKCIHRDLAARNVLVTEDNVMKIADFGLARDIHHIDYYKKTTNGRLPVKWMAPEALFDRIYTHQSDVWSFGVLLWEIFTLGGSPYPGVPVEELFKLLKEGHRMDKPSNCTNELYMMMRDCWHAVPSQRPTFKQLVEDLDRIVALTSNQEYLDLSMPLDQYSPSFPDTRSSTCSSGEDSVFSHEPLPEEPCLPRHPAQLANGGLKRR
PAK4, sequence (O96013 whole entry, looked up): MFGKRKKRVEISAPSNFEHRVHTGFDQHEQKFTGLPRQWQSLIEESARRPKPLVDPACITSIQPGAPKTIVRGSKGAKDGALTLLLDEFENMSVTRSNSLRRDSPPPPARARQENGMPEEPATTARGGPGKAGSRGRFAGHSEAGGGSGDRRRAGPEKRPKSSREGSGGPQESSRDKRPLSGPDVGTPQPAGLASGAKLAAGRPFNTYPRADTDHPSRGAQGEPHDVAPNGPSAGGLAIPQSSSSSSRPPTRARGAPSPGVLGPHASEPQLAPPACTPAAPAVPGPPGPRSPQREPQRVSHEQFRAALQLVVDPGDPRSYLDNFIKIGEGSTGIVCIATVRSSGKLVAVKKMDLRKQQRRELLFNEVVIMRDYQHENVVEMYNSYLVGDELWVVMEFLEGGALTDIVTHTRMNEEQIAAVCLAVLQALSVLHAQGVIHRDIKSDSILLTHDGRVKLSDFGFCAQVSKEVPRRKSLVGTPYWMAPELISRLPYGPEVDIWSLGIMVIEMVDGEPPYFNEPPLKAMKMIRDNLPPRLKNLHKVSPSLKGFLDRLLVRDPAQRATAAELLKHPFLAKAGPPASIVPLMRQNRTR
TGFBR1, sequence (P36897 whole entry): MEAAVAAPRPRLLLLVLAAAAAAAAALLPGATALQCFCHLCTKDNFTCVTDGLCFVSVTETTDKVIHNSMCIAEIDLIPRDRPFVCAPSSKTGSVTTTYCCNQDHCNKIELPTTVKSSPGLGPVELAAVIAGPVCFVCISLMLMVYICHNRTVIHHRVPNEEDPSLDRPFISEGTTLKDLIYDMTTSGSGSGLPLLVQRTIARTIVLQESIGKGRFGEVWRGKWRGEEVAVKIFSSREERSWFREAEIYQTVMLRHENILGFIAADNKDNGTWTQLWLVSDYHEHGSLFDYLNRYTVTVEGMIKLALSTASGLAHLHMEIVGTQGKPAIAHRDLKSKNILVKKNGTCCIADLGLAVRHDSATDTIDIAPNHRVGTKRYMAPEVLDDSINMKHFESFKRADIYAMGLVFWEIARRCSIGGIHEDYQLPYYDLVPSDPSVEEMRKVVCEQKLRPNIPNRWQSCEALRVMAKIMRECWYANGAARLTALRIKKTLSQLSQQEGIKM

- Kd (LATS1): 48.9 nM
- Kd (SRC): 808 nM
- Kd (CSK): 2170 nM
- Kd (ACVR1): 1270 nM
- Kd (TAOK3): 878 nM
- Kd (ITK): 38.6 nM
- Kd (MAP3K11): 231 nM
- Kd (PRKD3): 255 nM
- Kd (PHKG2): 1150 nM
- Kd (PKN1): 1520 nM
- Kd (TAOK2): 558 nM
- Kd (CDK1): 1910 nM
- Kd (ROCK1): 2000 nM
- Kd (AURKB): 35.6 nM
- Kd (PRKAA1): 83 nM
- Kd (TGFBR1): 1370 nM
- Kd (FGFR1): 144 nM
- Kd (PRKCA): 966 nM
- Kd (CDC42BPA): 1320 nM
- Kd (PAK4): 424 nM
- Kd (MAP3K4): 90 nM
SMILES: NC(=O)c1ccccc1Nc1nc(Nc2ccc(N3CCNCC3)cc2)ncc1Cl
- Kd (NEK9): 96.2 nM
